This is an account of results in PMC3806476, “Natural and Semisynthetic Analogues of Manadoperoxide B Reveal New Structural Requirements for Trypanocidal Activity” (Marine Drugs, 2013).

Series [1] relates to bloodstream forms of Trypanosoma brucei rhodesiense STIB 900 strain. The series can be described thus: Activity against Trypanosoma brucei rhodesiense (resazurin, 72 h). Type of series: cell-based. The settings on record: for IC50: Trypanosoma brucei. How it is done: Minimum Essential Medium (50 µL) supplemented with 25 mM HEPES, 1 g/L additional glucose, 1% MEM non-essential amino acids (100×), 0.2 mM 2-mercaptoethanol, 1mM Na-pyruvate and 15% heat inactivated horse serum was added to each well of a 96-well microtiter plate. Serial drug dilutions of eleven 3-fold dilution steps covering a range from 100 to 0.002 μg/mL were prepared. Then 4 × 10^4 bloodstream forms of STIB 900 strain (the stock was isolated in 1982 from a human patient in Tanzania and after several mouse passages was cloned and adapted to axenic culture conditions) of T. b. rhodesiense in 50 μL was added to each well and the plate incubated at 37 °C under a 5% CO2 atmosphere for 72 h. 10 µL of a resazurin solution (prepared dissolving 12.5 mg resazurin in 100 mL double distilled water) was then added to each well and incubation continued for a further 2–4 h. Then the plates were read in a Spectramax Gemini XS microplate fluorometer (Molecular Devices Cooperation, Sunnyvale, CA, USA) using an excitation wavelength of 536 nm and an emission wavelength of 588 nm. The IC50 values were calculated by linear regression from the sigmoidal dose inhibition curves using SoftmaxPro software (Molecular Devices Cooperation, Sunnyvale, CA, USA). Melarsoprol was the standard drug.

The nature of series [2]: Cytotoxicity against L6 cells (resazurin, 72 h). Type of series: cell-based, rat. Here is the method:
Assays were performed in 96-well microtiter plates, each well containing 100 μL of RPMI 1640 medium supplemented with 1% L-glutamine (200 mM) and 10% fetal bovine serum, and 4 × 10^4 L-6 cells. Serial drug dilutions of eleven 3-fold dilution steps covering a range from 100 to 0.002 μg/mL were prepared. After 72 h of incubation the plates were inspected under an inverted microscope to assure growth of the controls and sterile conditions. 10 μL of a resazurin solution (prepared dissolving 12.5 mg resazurin in 100 mL double distilled water) was then added to each well and the plates incubated for another 2 h. The plates were read with a Spectramax Gemini XS microplate fluorometer using an excitation wavelength of 536 nm and an emission wavelength of 588 nm. The IC50 values were calculated by linear regression from the sigmoidal dose inhibition curves using SoftmaxPro software (Molecular Devices Cooperation, Sunnyvale, CA, USA). The reported IC50 values are the means of at least two separate experiments. Podophyllotoxin was used as control drug.

In series [3] the test system is bloodstream forms of Trypanosoma brucei rhodesiense STIB 900 strain. Also on record: method as in PMID 22859016. The settings on record: cited from earlier work.
Series [4] shares this test system. The series is described as follows: Activity against Trypanosoma brucei rhodesiense (resazurin, 72 h). Type of series: cell-based. The settings on record: at the highest test concentrations (20 μg/mL).
Where [5] appears, read: rat skeletal myoblasts, mean of at least two replicates, read-out: IC50 Cytotoxicity L6 cells.
The mark [6] stands for this setting: rat skeletal myoblasts, mean of at least two replicates, read-out: IC50 Cytotoxicity L6 cells (in parentheses).
Where [7] appears, read: in vitro, read-out: IC50 against T. b. rhodesiense.
[8] abbreviates: in vitro, bloodstream forms, mean of at least two replicates, read-out: IC50 T. b. rhodesiense.
The mark [9] stands for this setting: in vitro, bloodstream forms, mean of at least two replicates, read-out: IC50 T. b. rhodesiense (in parentheses).

In brackets after ≈: the same amount, converted by molar mass. Several values for one entry are separate records, joined by “and”; a condition that tells them apart may be missing. Equal entries are not always repeated. Where two headings read alike, the source gives them in different places. Where only a bound is given, the exact number is not on record here.

With `Nc1nc(N)nc(Nc2ccc([As]3SCC(CO)S3)cc2)n1` (stereo not drawn) [Melarsoprol, reference compound], the IC50 in series [1] (read-out: IC50 T. b. rhodesiense) was 0.002 µg/mL; in series [1] (read-out: IC50 T. b. rhodesiense (in parentheses)), 5 nM. The results for the IC50 at 72 h in series [2] (setting [5]) and in series [2] (setting [6]) were 7.3 µg/mL and 18200 nM, respectively.

Consider manadoperoxide K, for which the “IC50 against T. b. rhodesiense” value in series [3] (in vitro) was 0.087 µg/mL. For the same molecule, the IC50 in series [3] (setting [7]) is 240 nM.

On to manadoperoxide I, for which the “IC50 against T. b. rhodesiense” value in series [3] (in vitro) is 0.062 µg/mL. Moreover, the IC50 in series [3] (setting [7]) was 170 nM.

As for `CC/C=C(C)\C=C\CCC[C@]1(OC)C[C@H](C)[C@H](CC(=O)OC)OO1` [12-Isomanadoperoxide B (2), 12-isomanadoperoxide B], in series [1] (IC50 against L6 cells divided by IC50 against the parasite), the “selectivity index (SI)” value was 345. Further, the values for the half-maximal inhibitory concentration (IC50) in series [1] (setting [8]) and in series [1] (setting [9]) were 0.011 µg/mL and 32 nM, respectively. Besides, in series [1] (comparison of IC50 values against T. b. rhodesiense), the “trypanocidal activity relative to manadoperoxide B (1)” value was “four-fold reduction”. Also, the IC50 at 72 h in series [2] (rat) is 3.8 µg/mL and 11.2 µM.

In the case of `COC(=O)C[C@@H]1OO[C@@](CCCC=O)(OC)C[C@@H]1C` [Aldehyde 7], the IC50 was 1.21 µg/mL in series [1] (setting [8]) and 4420 nM in series [1] (setting [9]). The IC50 at 72 h in series [2] (rat) was 7.55 µg/mL and 27.6 µM.

peroxyplakoric ester B3: in series [3] (methyl linked at C-2 in place of C-4), the “activity against T. b. rhodesiense (in words)” value is “almost completely lost”.

Take `CC/C=C(C)/C=C/CCC[C@]1(OC)C[C@H](C)[C@H](CC(=O)OC)OO1` [Manadoperoxide B (1), manadoperoxide B]: the “IC50 T. b. rhodesiense” value in series [3] (in vitro) was 0.003 µg/mL (≈ 8.81 nM). The IC50 in series [3] (in vitro, read-out: IC50 T. b. rhodesiense (in parentheses)) is 8.8 nM.

Regarding `CC[C@H]1OO[C@@H](CCC[C@]2(OC)C[C@H](C)[C@H](CC(=O)OC)OO2)C=C1C` [Compound 8], the half-maximal inhibitory concentration (IC50) in series [1] (setting [8]) was determined as 0.16 µg/mL; in series [1] (setting [9]) it was 430 nM. Also, the IC50 at 72 h in series [2] (rat) is 12.6 µg/mL and 33.8 µM.

With `COc1cc([C@@H]2c3cc4c(cc3[C@H](O)[C@H]3COC(=O)[C@H]23)OCO4)cc(OC)c1OC` [Podophyllotoxin, reference compound], the IC50 at 72 h in series [2] (setting [5]) stood at 0.004 µg/mL; in series [2] (setting [6]) it was 9.6 nM.

Consider `CC/C=C(C)/C=C/CCC[C@]1(OC)C[C@H](C)[C@H](CC(=O)O)OO1` [Manadoperoxidic acid B (3), manadoperoxidic acid B], for which the IC50 worked out at 1.87 µg/mL in series [1] (setting [8]) and 5740 nM in series [1] (setting [9]). For the same molecule, the concentration for half-maximal inhibition (IC50) at 72 h in series [2] (rat) is 7.12 µg/mL and 21.8 µM.

Consider `CC/C=C(C)/C=C/CCCC1(O)C[C@H](C)[C@H](CC(=O)OC)O1` (stereo partly drawn) [Compound 6], for which the IC50 in series [1] (setting [8]) was > 20 µg/mL. In addition, the “antitrypanosomal activity (in words)” value in series [4] was “inactive”. In series [2] (rat), the half-inhibitory concentration (IC50) at 72 h is 82.3 µg/mL and 252 µM.
